Measured values published in PMC2099433, “The binding site for neohesperidin dihydrochalcone at the human sweet taste receptor” (BMC Structural Biology, 2007).
Substitutions are numbered along the chain they refer to. Where a SMILES comes first, the peptide text is derived from it.

How the values were obtained:
[1] = target: T1, hTAS1R2 + hTAS1R3 Q636A^3.28 (Homo sapiens, UniProt Q7RTX0+Q8TE23, Q636A); test: Calcium response (FLIPR), hTAS1R3 mutant coexpressed with hTAS1R2; format: cell-based; details: variant Q636A^3.28; for Emax: read-out: maximal signal (% of wt)
T1 construct: expressed in transfected cells; host or cells: HEK293T cells stably expressing G16Gust44
T1 sequence (Q8TE23 20-839): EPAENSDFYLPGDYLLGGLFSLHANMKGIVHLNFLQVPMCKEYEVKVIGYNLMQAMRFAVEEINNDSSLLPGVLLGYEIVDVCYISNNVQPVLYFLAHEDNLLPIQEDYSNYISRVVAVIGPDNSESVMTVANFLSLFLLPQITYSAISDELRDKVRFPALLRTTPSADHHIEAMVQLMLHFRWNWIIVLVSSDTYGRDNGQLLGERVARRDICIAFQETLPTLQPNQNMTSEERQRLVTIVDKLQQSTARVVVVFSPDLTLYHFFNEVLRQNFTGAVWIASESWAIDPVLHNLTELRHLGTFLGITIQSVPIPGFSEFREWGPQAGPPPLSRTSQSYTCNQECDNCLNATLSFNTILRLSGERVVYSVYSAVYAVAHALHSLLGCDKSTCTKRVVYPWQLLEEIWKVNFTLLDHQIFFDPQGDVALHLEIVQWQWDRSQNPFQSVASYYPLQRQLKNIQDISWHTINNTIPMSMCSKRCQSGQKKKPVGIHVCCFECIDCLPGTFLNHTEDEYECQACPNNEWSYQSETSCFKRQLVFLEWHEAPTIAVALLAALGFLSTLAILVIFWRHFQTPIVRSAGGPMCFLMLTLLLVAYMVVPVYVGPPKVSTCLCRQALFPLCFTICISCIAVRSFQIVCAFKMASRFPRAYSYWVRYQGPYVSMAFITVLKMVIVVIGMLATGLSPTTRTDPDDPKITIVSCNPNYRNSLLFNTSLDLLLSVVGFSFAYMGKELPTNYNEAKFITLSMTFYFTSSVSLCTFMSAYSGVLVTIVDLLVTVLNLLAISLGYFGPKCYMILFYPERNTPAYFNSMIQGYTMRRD
T1 sequence (Q7RTX0 21-852 Q636A): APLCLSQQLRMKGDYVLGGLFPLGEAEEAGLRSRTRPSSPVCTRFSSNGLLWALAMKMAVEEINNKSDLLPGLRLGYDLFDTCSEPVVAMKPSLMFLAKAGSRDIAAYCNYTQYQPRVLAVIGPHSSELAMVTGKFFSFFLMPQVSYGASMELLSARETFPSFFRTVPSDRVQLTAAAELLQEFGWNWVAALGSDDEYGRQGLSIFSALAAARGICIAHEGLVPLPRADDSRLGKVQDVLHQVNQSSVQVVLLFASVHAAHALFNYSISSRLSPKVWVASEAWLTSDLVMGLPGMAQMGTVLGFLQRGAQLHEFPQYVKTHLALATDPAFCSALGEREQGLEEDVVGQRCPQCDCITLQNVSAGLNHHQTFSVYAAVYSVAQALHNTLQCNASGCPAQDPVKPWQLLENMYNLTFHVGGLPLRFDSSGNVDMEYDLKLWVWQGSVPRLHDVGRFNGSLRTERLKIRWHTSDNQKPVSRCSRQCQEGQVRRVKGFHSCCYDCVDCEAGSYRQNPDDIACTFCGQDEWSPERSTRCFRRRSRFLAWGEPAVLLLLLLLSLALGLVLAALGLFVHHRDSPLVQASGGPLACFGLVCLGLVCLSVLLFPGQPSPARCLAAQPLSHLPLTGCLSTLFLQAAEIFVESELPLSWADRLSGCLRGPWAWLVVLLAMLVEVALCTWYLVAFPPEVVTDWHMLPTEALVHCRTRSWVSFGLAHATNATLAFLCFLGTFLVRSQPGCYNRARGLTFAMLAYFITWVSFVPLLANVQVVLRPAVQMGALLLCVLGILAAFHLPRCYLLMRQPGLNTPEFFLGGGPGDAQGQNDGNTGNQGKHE
Summary of the method: (§1)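 Read-out: FLIPR calcium signal as ΔF/F = (F-F0)/F0, corrected for mock-transfected cells. Cells were HEK293T stably carrying G16Gust44, transiently transfected with HSV-tagged receptor cDNAs and dye-loaded with Fluo4-AM 24 h post transfection.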

[2] = target: T2, hTAS1R2 + hTAS1R3 F624L^2.61 (Homo sapiens, UniProt Q7RTX0+Q8TE23, F624L); test: as above; format: cell-based; details: variant F624L^2.61; for EC50: (>) EC50 not calculable because saturation is not reached; for Emax: read-out: maximal signal (% of wt)
T2 construct: expressed in transfected cells; host or cells: HEK293T cells stably expressing G16Gust44
T2 sequence (Q8TE23 20-839): T1 sequence (Q8TE23 20-839)
T2 sequence (Q7RTX0 21-852 F624L): T1 sequence (Q7RTX0 21-852 Q636A) with F604L, A616Q
Summary of the method: as §1

SMILES | EC50 [1] [µM] | Emax [1] [%] | EC50 [2] [µM] | Emax [2] [%]
COc1ccc(CCC(=O)c2c(O)cc(O[C@@H]3O[C@H](CO)[C@@H](O)[C@H](O)[C@H]3O[C@@H]3O[C@@H](C)[C@H](O)[C@@H](O)[C@H]3O)cc2O)cc1O [NHDC, neohesperidin dihydrochalcone] | 300 ± 200 | 61 ± 29 | > 1000 | 35 ± 70
COC(=O)[C@H](Cc1ccccc1)NC(=O)[C@@H](N)CC(=O)O [aspartame] (HELM PEPTIDE1{D.F.[CO[*:1]]}$$$$V2.0) | 1100 ± 100 | 70 ± 18 | 1400 ± 200 | 21 ± 4
